Measurements: the supplement of paper PMC7017272
± gives the standard deviation of the averaged measurements.

How the values were obtained:
UT-SCC-24B [1] = assay: maximal % inhibition of viability relative to DMSO; higher = stronger effect; details: treatment time: 3 days
Experimental: (§1)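 HNSCC cell lines (500 cells/well, 384-well) were cultured on plastic, on top of (2D) or embedded (3D) in Matrigel or human leiomyoma matrix Myogel (500 ug/mL; Myogel 3D mixed with rat collagen I). Cells were treated for 3 days with 5 ten-fold concentrations of each drug, and viability was read by CellTiter-Glo. Viability was normalised to DMSO and benzethonium chloride controls and fitted with the FIMM DSRT pipeline to give IC50 (nM), maximal % inhibition and DSS. Suffixes _1/_2/_3 are replicates. Only inhibition-mode (IC50) fits are kept.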

UT-SCC-81 [2] = assay: as above; details: treatment time: 3 days
Experimental: as §1

UT-SCC-73 = assay: as above; details: treatment time: 3 days
Experimental: as §1

UT-SCC-14 [3] = assay: as above; details: treatment time: 3 days
Experimental: as §1

UT-SCC-28 [4] = assay: as above; details: treatment time: 3 days
Experimental: as §1

UT-SCC-42A [5] = assay: as above; details: treatment time: 3 days
Experimental: as §1

UT-SCC-8 [6] = assay: as above; details: treatment time: 3 days
Experimental: as §1

UT-SCC-106A = assay: as above; details: treatment time: 3 days
Experimental: as §1

UT-SCC-40 = assay: as above; details: treatment time: 3 days
Experimental: as §1

UT-SCC-42B = assay: as above; details: treatment time: 3 days
Experimental: as §1

UT-SCC-44 = assay: as above; details: treatment time: 3 days
Experimental: as §1

UT-SCC-24B [7] = assay: relative IC50 (midpoint of the fitted curve; maximal inhibition may be below 50%); higher = less potent; details: treatment time: 3 days
Procedure, shortened: (§2)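 HPV-negative HNSCC cell lines were seeded at 500 cells/well in 384-well plates on plastic, on Matrigel- or Myogel-coated wells (500 µg/mL), or embedded in Matrigel or Myogel plus rat collagen I. Compounds were given at five 10-fold concentrations for 3 days, and viability was read by CellTiter-Glo 2.0 luminescence. Signals were normalised to vehicle (0.1% DMSO) and cell-killing control wells. Percent-inhibition dose–response curves were fitted in the FIMM pipeline to derive IC50, maximal inhibition and drug sensitivity score.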

UT-SCC-81 [8] = assay: as above; details: treatment time: 3 days
Procedure, shortened: as §2

UT-SCC-14 [9] = assay: as above; details: treatment time: 3 days
Procedure, shortened: as §2

UT-SCC-28 [10] = assay: as above; details: culture condition: embedded in Matrigel; treatment time: 3 days
Procedure, shortened: as §2

UT-SCC-42A [11] = assay: as above; details: treatment time: 3 days
Procedure, shortened: as §2

UT-SCC-8 [12] = assay: as above; details: treatment time: 3 days
Procedure, shortened: as §2

[13] = culture condition: embedded in Matrigel
[14] = culture condition: embedded in Myogel + collagen I
[15] = culture condition: on top of Matrigel
[16] = culture condition: on top of Myogel
[17] = culture condition: plastic 2D (no matrix)

Cn1cnc2c(F)c(Nc3ccc(Br)cc3Cl)c(C(=O)NOCCO)cc21 [Selumetinib]
maximal % inhibition of viability (UT-SCC-24B [1]; [13]): 87.67 ± 0.5% | maximal % inhibition of viability (UT-SCC-24B [1]; [14]): 84 ± 4.5% | maximal % inhibition of viability (UT-SCC-24B [1]; [15]): 86.67 ± 0.21% | maximal % inhibition of viability (UT-SCC-24B [1]; [16]): 82.5 ± 3.8% | maximal % inhibition of viability (UT-SCC-24B [1]; [17]): 89.73 ± 0.6% | maximal % inhibition of viability (UT-SCC-81 [2]; [13]): 87.8 ± 2% | maximal % inhibition of viability (UT-SCC-81 [2]; [14]): 39.9 ± 7.8% | maximal % inhibition of viability (UT-SCC-81 [2]; [15]): 82.63 ± 0.81% | maximal % inhibition of viability (UT-SCC-81 [2]; [16]): 54.2 ± 2.4% | maximal % inhibition of viability (UT-SCC-81 [2]; [17]): 68.7 ± 4.2% | maximal % inhibition of viability (UT-SCC-73; [13]): 81.9 ± 1.5% | maximal % inhibition of viability (UT-SCC-73; [14]): 54.4 ± 8.1% | maximal % inhibition of viability (UT-SCC-73; [15]): 80 ± 1.5% | maximal % inhibition of viability (UT-SCC-73; [16]): 65.4 ± 1.1% | maximal % inhibition of viability (UT-SCC-73; [17]): 75.3 ± 1.2% | maximal % inhibition of viability (UT-SCC-14 [3]; [13]): 31 ± 16% | maximal % inhibition of viability (UT-SCC-14 [3]; [14]): 26.1 ± 7.3% | maximal % inhibition of viability (UT-SCC-14 [3]; [15]): 38.6 ± 9% | maximal % inhibition of viability (UT-SCC-14 [3]; [16]): 32.2 ± 8.8% | maximal % inhibition of viability (UT-SCC-14 [3]; [17]): 35.5 ± 14% | maximal % inhibition of viability (UT-SCC-28 [4]; [13]): 38.9 ± 18% | maximal % inhibition of viability (UT-SCC-28 [4]; [14]): 39.8 ± 4.3% | maximal % inhibition of viability (UT-SCC-28 [4]; [15]): 35.8 ± 9.2% | maximal % inhibition of viability (UT-SCC-28 [4]; [17]): 29.4 ± 9.5% | maximal % inhibition of viability (UT-SCC-42A [5]; [13]): 54.2 ± 7.8% | maximal % inhibition of viability (UT-SCC-42A [5]; [14]): 24.9 ± 13% | maximal % inhibition of viability (UT-SCC-42A [5]; [15]): 55.1 ± 8.1% | maximal % inhibition of viability (UT-SCC-42A [5]; [16]): 40.7 ± 4.6% | maximal % inhibition of viability (UT-SCC-42A [5]; [17]): 50.4 ± 6.9% | maximal % inhibition of viability (UT-SCC-8 [6]; [13]): 49.4 ± 8.9% | maximal % inhibition of viability (UT-SCC-8 [6]; [14]): 33.9 ± 6.9% | maximal % inhibition of viability (UT-SCC-8 [6]; [15]): 47.1 ± 5.1% | maximal % inhibition of viability (UT-SCC-8 [6]; [16]): 50.4 ± 5.8% | maximal % inhibition of viability (UT-SCC-8 [6]; [17]): 53.4 ± 9.7% | maximal % inhibition of viability (UT-SCC-106A; [13]): 53.2 ± 6.3% | maximal % inhibition of viability (UT-SCC-106A; [14]): 18.7 ± 4.1% | maximal % inhibition of viability (UT-SCC-106A; [15]): 58.9 ± 5.3% | maximal % inhibition of viability (UT-SCC-106A; [16]): 15.5 ± 4.6% | maximal % inhibition of viability (UT-SCC-106A; [17]): 58.1 ± 4.1% | maximal % inhibition of viability (UT-SCC-40; [13]): 79.8 ± 1.3% | maximal % inhibition of viability (UT-SCC-40; [14]): 62.5 ± 8% | maximal % inhibition of viability (UT-SCC-40; [15]): 75.8 ± 3.5% | maximal % inhibition of viability (UT-SCC-40; [16]): 52.1 ± 3.1% | maximal % inhibition of viability (UT-SCC-40; [17]): 56.2 ± 5.7% | maximal % inhibition of viability (UT-SCC-42B; [13]): 67.7 ± 7.4% | maximal % inhibition of viability (UT-SCC-42B; [15]): 46.9 ± 14% | maximal % inhibition of viability (UT-SCC-42B; [16]): 17.3 ± 1.7% | maximal % inhibition of viability (UT-SCC-42B; [17]): 25.6 ± 8.1% | maximal % inhibition of viability (UT-SCC-44; [13]): 66.5 ± 25% | maximal % inhibition of viability (UT-SCC-44; [14]): 42.2 ± 0.7% | maximal % inhibition of viability (UT-SCC-44; [15]): 51.6 ± 3.1% | maximal % inhibition of viability (UT-SCC-44; [16]): 41.2 ± 5.3% | maximal % inhibition of viability (UT-SCC-44; [17]): 39.8 ± 1.5% | relative IC50 (UT-SCC-24B [7]; [13]): 0.169 µM | relative IC50 (UT-SCC-24B [7]; [14]): 0.165 µM | relative IC50 (UT-SCC-24B [7]; [15]): 0.173 µM | relative IC50 (UT-SCC-24B [7]; [16]): 0.177 µM | relative IC50 (UT-SCC-24B [7]; [17]): 0.117 µM | relative IC50 (UT-SCC-81 [8]; [13]): 0.0535 µM | relative IC50 (UT-SCC-81 [8]; [15]): 0.0953 µM | relative IC50 (UT-SCC-14 [9]; [13]): 0.0742 µM | relative IC50 (UT-SCC-14 [9]; [15]): 0.279 µM | relative IC50 (UT-SCC-28 [10]): 0.0799 µM | relative IC50 (UT-SCC-42A [11]; [14]): 0.263 µM | relative IC50 (UT-SCC-42A [11]; [16]): 0.111 µM | relative IC50 (UT-SCC-8 [12]; [13]): 0.163 µM | relative IC50 (UT-SCC-8 [12]; [15]): 0.176 µM | relative IC50 (UT-SCC-8 [12]; [16]): 0.139 µM
